# Measurements published in patent US20030040479A1, “Rotational intrathecal analgesia method and device” (Omeros Corporation, priority 2001, published 2003).
# Assays:
# Format in all cases: in vivo
# [1] = tested on: male Sprague-Dawley rats; assay: Rat hindpaw withdrawal latency (HWL) to mechanical stimulation, Randall Selitto Test; conditions: for % Changes of HWL to Mechanical Stimulation: 10 minutes after intrathecal injection
# [2] = tested on: male Sprague-Dawley rats; assay: Rat hindpaw withdrawal latency (HWL) to thermal stimulation, hot-plate test; conditions: for % Changes of HWL to Thermal Stimulation: 10 minutes after intrathecal injection
# [3] = tested on: male Sprague-Dawley rats; assay: Development of tolerance to intrathecal analgesia in rat HWL tests (thermal and mechanical); conditions: intrathecal every 12 hrs
# Procedure: A polyethylene catheter (Intramedic PE 10) was permanently implanted intrathecally with the inner tip at L3 to L5 in each animal. Rats displaying movement disorders following placement of the catheter were not used in the study. Injection volume was 10 μL of drug solution followed by 10 μL of 0.9% saline to flush the catheter. Intrathecal injections were performed every 12 hrs (morning and night).
# In the morphine only group, 8 μg morphine HCl was injected every 12 hrs until complete tolerance developed and in the nociceptin only group, 10 nmol nociceptin was injected every 12 hrs until complete tolerance developed. These doses were chosen from previous studies that determined an equianalgesic dosing for these two drugs. […]
# Solutions for intrathecal injection were prepared with sterilized saline (0.9%). […] The hindpaw withdrawal latency (HWL) was measured for both thermal and mechanical stimulation. […] A wedge shaped probe with a loading rate of 30 g/second was applied to the dorsal surface of the manually handled hindpaw and the mechanical stimulation required to initiate the struggle response was assessed. […] The HWLs were measured 15 min after the second intrathecal injection on a daily basis. […]
# [4] = day 1, drug alone, intrathecal, text summary of both hindpaws
structure (smiles),measurement,setting,value
"CN1CC[C@]23c4c5ccc(O)c4O[C@H]2[C@@H](O)C=C[C@H]3[C@H]1C5 [Morphine, morphine]",HWL increase using mechanical stimulation,[1]; [4],~55%
same,% Changes of HWL to Mechanical Stimulation,"[1]; day 1, left hindpaw",53.99 ± 2.96%
same,% Changes of HWL to Mechanical Stimulation,"[1]; day 1, right hindpaw",56.04 ± 3.38%
same,% Changes of HWL to Mechanical Stimulation,"[1]; day 2, left hindpaw",47.69 ± 2.54%
same,% Changes of HWL to Mechanical Stimulation,"[1]; day 2, right hindpaw",46.74 ± 2.52%
same,% Changes of HWL to Mechanical Stimulation,"[1]; day 3, left hindpaw",33.85 ± 1.60%
same,% Changes of HWL to Mechanical Stimulation,"[1]; day 3, right hindpaw",33.44 ± 1.03%
same,% Changes of HWL to Mechanical Stimulation,"[1]; day 4, left hindpaw",31.37 ± 2.02%
same,% Changes of HWL to Mechanical Stimulation,"[1]; day 4, right hindpaw",28.84 ± 2.73%
same,% Changes of HWL to Mechanical Stimulation,"[1]; day 5, left hindpaw",15.30 ± 1.39%
same,% Changes of HWL to Mechanical Stimulation,"[1]; day 5, right hindpaw",16.54 ± 1.26%
same,% Changes of HWL to Mechanical Stimulation,"[1]; day 6, left hindpaw",3.26 ± 1.86%
same,% Changes of HWL to Mechanical Stimulation,"[1]; day 6, right hindpaw",2.72 ± 1.94%
same,HWL increase using thermal stimulation,[2]; [4],approximately 67%
same,% Changes of HWL to Thermal Stimulation,"[2]; day 1, left hindpaw",66.26 ± 2.20%
same,% Changes of HWL to Thermal Stimulation,"[2]; day 1, right hindpaw",66.66 ± 1.51%
same,% Changes of HWL to Thermal Stimulation,"[2]; day 2, left hindpaw",61.25 ± 3.05%
same,% Changes of HWL to Thermal Stimulation,"[2]; day 2, right hindpaw",63.11 ± 0.64%
same,% Changes of HWL to Thermal Stimulation,"[2]; day 3, left hindpaw",51.66 ± 1.73%
same,% Changes of HWL to Thermal Stimulation,"[2]; day 3, right hindpaw",48.74 ± 2.40%
same,% Changes of HWL to Thermal Stimulation,"[2]; day 4, left hindpaw",43.63 ± 1.38%
same,% Changes of HWL to Thermal Stimulation,"[2]; day 4, right hindpaw",42.45 ± 1.70%
same,% Changes of HWL to Thermal Stimulation,"[2]; day 5, left hindpaw",23.85 ± 1.03%
same,% Changes of HWL to Thermal Stimulation,"[2]; day 5, right hindpaw",25.07 ± 2.07%
same,% Changes of HWL to Thermal Stimulation,"[2]; day 6, left hindpaw",−1.30 ± 2.36%
same,% Changes of HWL to Thermal Stimulation,"[2]; day 6, right hindpaw",0.51 ± 1.61%
same,day by which complete (total) tolerance exists,[3],6 days
